The values that follow come from US5220042A, “1,4-benzoquinone derivatives and benzene derivatives, and process for preparing the same” (priority 1984, dated 1993).

Type in all cases: cell-based, guinea pig (Hartley strain)
For test [1], the system named is SRS-A release from lung fragments. As to the kind of experiment: Inhibition of SRS-A release from sensitized guinea pig lung fragments. Conditions: Cavia porcellus, read-out: Inhibition ratio (%) SRS-A; for inhibition at 3 µM: Table 2, dose 3 μM; for inhibition at 30 µM: Table 2, dose 30 μM. The method in brief: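 Lung fragments from ovalbumin-sensitized male Hartley guinea pigs were preincubated 5 min at 37 °C in Tyrode's, given compound in DMSO for 5 min, then challenged with ovalbumin for 10 min. Released histamine was bioassayed by guinea pig ileum contraction at 30 s. SRS-A was read at 2 min with 10^-6 M pyrilamine against a crude SRS-A standard curve.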

The subject of test [2] is histamine release from lung fragments. As to the kind of experiment: Inhibition of histamine release from sensitized guinea pig lung fragments. The settings on record: Cavia porcellus, read-out: Inhibition ratio (%) Histamine; for inhibition at 3 µM: Table 2, dose 3 μM; for inhibition at 30 µM: Table 2, dose 30 μM. As for the experimental part:
Inhibitory activities on the release of SRS-A and histamine of the present compounds were determined.
A male guinea pig (Hartley strain) (body weight: about 300 g) was sensitized by a method according to P. Anderson: "Int. Archs. Allergey appln. Immunol., Vol. 64, pages 249-258 (1981). Thus, 30 mg/kg of cyclophosphamide was intraperitoneally administered to the guinea pig, and 2 days after 1 microgram of ovalbumin (manufactured by Sigma Chemical Co., St. Louis, Mo. U. S. A.) together with 10 mg of aluminium hydroxide gel were intraperitoneally administered so as to have the animal sesitized.
50 Days after the sesitization, the animal was killed by exsanguination, and the lung was isolated from the animal and was perfused with 20 ml of Tyrode's solution, then immersed in an ice-cooled Tyrode's solution. The parenchyma of the lung was cut by using McIlwain-type tissue chopper to make it into fragments of lung having 2 mm square and the fragments were washed with Tyrode's solution. 400 Milligrams of sectiles of lung were suspended in 3.6 ml of Tyrode's solution, and this suspension was preincubated at 37° C. for 5 minutes, then 4 microliters of dimethyl sulfoxide solution of the test compound, in the case of control 4 microliters of dimethyl sulfoxide alone was added to the suspension. 5 Minutes after, 0.4 ml of 100 micrograms/ml of ovalbumin solution added so as to release SRS-A for 10 minutes. The suspension was ice-cooled and filtered through gauze, the filtrate was centrifuged at 2,000 rpm for 10 minutes and the supernatant was collected. The supernatant was stored in freezed state at -80° C. until bio-assay was conducted.
Amounts of SRS-A and histamine contained in the supernatant were determined by bio-assay using ileum of guinea pig.
A piece of the ileum (2-3 cm of length) positioned from 15-25 cm from the opening portion of ileocecum was isolated from a male guinea pig (Hartley strain) (body weight: 400-600 g) which was fasted for 24 hours. The piece of ileum was hanged vertically in a Magnus tube which was filled with 10 ml of Tyrode's solution containing 10^-7 M of atropine sulfate under air stream conditions. The isotonic contraction of the piece of the ileum was measured at 0.5 g of load by using an isotonic transducer "TD-112S" (manufactured by Nihon Koden Co., Ltd.). The measurements were carried out after the reaction to histamine of the piece of ileum was kept constant. Bioassay of histamine was measured by using the value of contraction shown in 30 seconds after the addition of the supernatant. Bioassay of on SRS-A was measured by using the value of contraction shown at 2 minutes after the addition of the supernatant in the presence of 10^-6 M of pyrilamine (manufactured by Sigma Chemical Co.), and compared with the standard curve of crude SRS-A released from the fragments of the lung.

For test [3], the target named is T1, 5-lipoxygenase (Cavia porcellus, UniProt A0A286X958).
T1 construct: endogenous in cells; host or cells: guinea pig (Hartley strain) casein-elicited peritoneal exudate cells, intact cell suspension
T1 sequence (A0A286X958 1-674): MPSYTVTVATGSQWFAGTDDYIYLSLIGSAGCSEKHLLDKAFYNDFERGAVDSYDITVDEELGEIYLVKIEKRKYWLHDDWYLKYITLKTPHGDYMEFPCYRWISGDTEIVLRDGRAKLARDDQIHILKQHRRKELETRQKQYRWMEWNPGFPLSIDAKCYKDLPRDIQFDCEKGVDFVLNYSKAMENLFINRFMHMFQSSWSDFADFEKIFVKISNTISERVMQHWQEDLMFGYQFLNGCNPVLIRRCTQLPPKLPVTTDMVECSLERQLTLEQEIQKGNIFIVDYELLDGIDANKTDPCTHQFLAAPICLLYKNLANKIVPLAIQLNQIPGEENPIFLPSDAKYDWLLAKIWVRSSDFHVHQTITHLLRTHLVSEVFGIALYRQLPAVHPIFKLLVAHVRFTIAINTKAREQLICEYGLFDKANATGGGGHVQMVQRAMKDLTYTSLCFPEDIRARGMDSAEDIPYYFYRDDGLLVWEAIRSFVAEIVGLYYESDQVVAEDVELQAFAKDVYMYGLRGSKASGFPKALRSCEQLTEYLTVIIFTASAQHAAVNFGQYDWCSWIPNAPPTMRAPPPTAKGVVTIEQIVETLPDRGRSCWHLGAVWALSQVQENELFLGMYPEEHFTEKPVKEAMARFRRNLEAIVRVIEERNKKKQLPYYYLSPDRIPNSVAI
As to the kind of experiment: 5-Lipoxygenase inhibitory activity (conversion of 14C-arachidonic acid to 5-HETE) in guinea pig peritoneal exudate cells. Conditions: read-out: inhibition ratio (%) of 5-lipoxygenase activity; for inhibition at 0.3 µM: concentration 3 × 10^-7 M; for inhibition at 1 µM: concentration 10^-6 M; for inhibition at 0.1 µM: concentration 10^-7 M. Here is the method:
5-Lipoxygenase inhibitory activity of the present compounds was determined by a method according to procedures described in "J. Biol. Chem., Vol. 256, pages 4156-4159, (1981, Ibid. Vol. 258, pages 5754-5758 (1983).
(1) Preparation of Test Cells
A guinea pig (Hartley strain) (500-650 g body weight) was intraperitoneally administered with 2%-casein solution in 3/50 the volume of body weight. 14 Hours after the administration, the animal was sacrificed by bleeding and the peritoneal cavity was washed with Dulbecco's phosphate buffered saline (PBS) containing 3 U/ml of heparin and the exudate cells were harvested. The sample of cells was washed twice with Dulbecco's PBS (-), then the cells were suspended in Dulbecco's PBS (-), containing 1 mM of calcium chloride and 5.5 mM of glucose, so as to make a suspension having the concentration of 2.5×10^7 cells/ml.
To 0.2 ml of the above-mentioned cell suspension was added 10^-5 M of Indomethacine, and incubated at 30° C. for 2 minutes. Each of the appropriate concentrations of test compounds was added to the suspension respectively, further incubated for 2 minutes. Next, 10 μm of Ionophore A23187 (manufactured by Calbiochem-Behring, San Diego, Calif., U. S. A) was added to the suspension, further, 10 μm of ^14 C-arachidonic acid (manufactured by Amersham Japan, Ltd., Tokyo, Japan) was added and initiated the reaction. 3 Minutes after the initiation of the reaction, 0.1 ml of 0.2M-citric acid was added so as to terminate the reaction. 1.2 Milliliters of ethyl acetate was added to the reaction mixture and shaked for 5 minutes. The reaction mixture was centrifuged at 3,000 rpm for 5 minutes so as to separate the organic layer from the aqueous layer. 1 Milliliter of the organic layer (the upper layer) was dehydrated by passing through a mini-column packed with anhydrous sodium sulfate. The dehydrated organic layer was dried under nitrogen gas stream. The residue obtained was dissolved in ethyl acetate, and the total amount of the ethyl acetate solution was spotted onto thin layer chromochromatography (TCL) plate (Art. 11845 manufactured by E. Merck A. G.). The TCL was carried out with a mixed solvent of diethyl ether:petroleum:ether:acetic acid (50:50:1 volume/volume), then the radioactive metabolites on the plate were detected by using "Ultrafilm ^3 H" (a trademark for a X-ray film, manufactured by LKB Co.). Each fractions corresponding to the metabolites was scraped in to a scintillation vial, and 5 ml of "Scintilator ACS-II" (manufactured by Amersham Japan, Ltd.), was added then the radio-activity was determined by means of a liquid scintillation counter.

Regarding `COC1=CC(=O)C(OC)=C(CCCCCCCCCCC2=C(OC)C(=O)C=C(OC)C2=O)C1=O` [Test Compound No. 14, 2,2'-Decamethylenebis(3,6-dimethoxy-1,4-benzoquinone)], in test [1], the inhibition at 3 µM worked out at 4.5% and the inhibition at 30 µM stood at 29.2%. Besides, in test [2], the inhibition at 3 µM was -12.6% and the inhibition at 30 µM was -23.5%. In addition, in test [3], the inhibition at 0.3 µM is 78%, the inhibition at 1 µM is 89% and the inhibition at 0.1 µM stood at 34%.
On to `COC1=CC(=O)C(OC)=C(CCCCCCCCCCCCC2=C(OC)C(=O)C=C(OC)C2=O)C1=O` [Test Compound No. 15, 2,2'-Dodecamethylenebis(3,6-dimethoxy-1,4-benzoquinone)], for which, in test [1], the inhibition at 3 µM amounted to 3.4% and the inhibition at 30 µM came to 3.8%. Further, in test [2], the inhibition at 3 µM is -10.4% and the inhibition at 30 µM is -16%. Further, in test [3], the inhibition at 0.3 µM was determined as 37%, the inhibition at 1 µM was determined as 77% and the inhibition at 0.1 µM was determined as 5%.
With `COC1=CC(=O)C(OC)=C(CCCCCC2=C(OC)C(=O)C(C)=C(OC)C2=O)C1=O` [Test Compound No. 18, 2,5-Dimethoxy-3-methyl-6-[5-(2,5-dimethoxy-1,4-benzoquinon-3-yl)pentyl]-1,4-benzoquinone], in test [1], the inhibition at 3 µM was found to be 62.9% and the inhibition at 30 µM is 91.9%. Moreover, in test [2], the inhibition at 3 µM was 14.4% and the inhibition at 30 µM was 8.3%. Besides, in test [3], the inhibition at 0.3 µM stood at 33%, the inhibition at 1 µM was 53% and the inhibition at 0.1 µM came to 17%.
